Entries after “also recorded” stand apart in the source; their conditions may differ.
What was measured:
Type in all cases: in vivo
[1] = test system: CS-challenged skeletal muscle (EDL); assay: Rat compartment syndrome model, intravital video microscopy (IVVM) of EDL muscle
Description: (§1) The experimental protocol was approved by the Council on Animal Care of the University of Western Ontario, and has been previously described in detail. Briefly, male Wistar rats (body weight 180-250 g) were anesthetized by inhalational isoflurane (5% induction, 2% maintenance) in 1:1 oxygen/nitrogen mixture. Left carotid artery was cannulated to allow for the monitoring of systemic blood pressure, fluid administration and blood sampling.
(§2) Compartment pressure monitoring probe (Synthes, Westchester Pa.) was inserted into the posterior compartment via gauge 16 angiocatheter (BD), while gauge 24 angiocatheter (BD) attached to an IV line was placed into the anterior compartment of the rat hind limb. CS was induced by an infusion of isotonic saline, leading to an elevation of intra-compartmental pressure (ICP) to 30 mmHg. Elevated ICP was maintained for 2 hours. Fasciotomy was performed to decompress the hind limb compartments; the muscles were allowed to reperfuse for 45 minutes, followed by intravital video microscopy.
(§3) Rats were randomly assigned to one of four experimental groups: sham (n=4), CS (n=4), CS+CORM-3 (n=8) and CS+iCORM-3 (n=8).
The extensor digitorum longus (EDL) muscle was dissected to the level of its distal tendon, which was tied with a suture and cut from its bony insertion. The animal was transferred onto the stage of an inverted microscope (Nikon™); the EDL was reflected into a saline bath containing 5 μg/ml each of the fluorescent vital dyes bisbenzimide (BB; exc. 343 nm, em. 483 nm) and ethidium bromide (EB; exc. 482 nm, em. 616 nm). BB stains the nuclei of all cells while EB stains the nuclei of only those cells with damaged cell membrane. Thus, EB/BB ratio provided an index of tissue injury.
Microvascular perfusion and leukocytes within the post-capillary venules were recorded by translumination with 20× and 40× objectives, respectively, in five adjacent fields of view. Fluorescence microscopy was used to visualize the BB and EB from the same fields of view that had been selected for the measurement of capillary perfusion. At the conclusion of the experiment, rats were euthanized by an overdose of anesthetic agent.
Capillary perfusion was assessed by counting the number of continuously-perfused (CPC), intermittently-perfused (IPC) and non-perfused (NPC) capillaries that crossed three parallel lines drawn perpendicular to the capillary axis on the video monitor, and was expressed as % of total capillaries. Tissue injury was assessed by counting the number of EB- and BB-labelled nuclei, and expressed as EB/BB ratio. Leukocyte activation was assessed by counting the numbers of rolling and adherent leukocytes in post-capillary venules and expressed per 1000 μm^2. Venular area was measured using ImageJ (NIH, Bethesda, Md.). A leukocyte was considered adherent if it remained stationary for at least 30 seconds, and a cell was considered rolling if it remained in contact with the wall of the vessel during its movement.

[2] = Systemic leukocyte counts, hemoglobin and carboxyhemoglobin in rat CS model
Description: as §1, §2, §3
Two hours of elevated ICP were followed by fasciotomy, injection of CORM-3 (or iCORM-3) and 45 min reperfusion. CS-associated rise in systemic leukocytes was reversed by CORM-3 application (*p<0.01 from sham; †p<0.05 from CS+iCORM-3). CORM-3 and iCORM-3 caused no changes in systemic levels of COHb. LKC, leukocyte counts; COHb, carboxyhemoglobin.

TNF-α [3] = assay: Serum TNF-α (ELISA) in rat CS model; conditions: 30 and 45 minutes post-fasciotomy, 10 mg/kg IP
Experimental: TNF-α levels were measured from arterial blood samples drawn at 9 time points: (1) baseline, (2) 15 minutes into CS, (3) 45 minutes into CS, (4) 90 minutes into CS, (5) 2 hours into CS-just prior to fasciotomy and CORM-3 (or iCORM-3) injection, (6) 10 minutes post-fasciotomy, (7) 20 minutes post fasciotomy, (8) 30 minutes post fasciotomy, (9) 45 minutes post fasciotomy, just before IVVM. TNF-α was assessed using enzyme-linked immunosorbent assay (ELISA, Pierce Biotechnology, c/o Thermo Scientific, Rockford, Ill.) according to manufacturer's instructions. The TNF-α ELISA was sensitive to less than […].

compartment syndrome [4] = assay: Porcine model of compartment syndrome: PMN activation and capillary perfusion (IVVM); conditions: pig, 6 h elevated ICP, 10 mg/kg
Experimental: (§4) Following the basic surgical setup (anesthesia, intubation, auricular vein and femoral artery catheterization), the animals undergo 6 hours of elevated intra-compartmental pressure (i.e. CS), followed by fasciotomy and reperfusion. The time interval was chosen in order to closely mimic the condition in human patients. CORM-3 (or iCORM-3), 10 mg/kg of animal is applied prior to fasciotomy. Blood is sampled at various time intervals (baseline, 1 hr CS, 2 hr CS, 3 hr CS, 4 hr CS, 5 hr CS, 6 hr CS/fasciotomy, and every 10-15 min post-fasciotomy, for a total of 20 samples per animal), in order to monitor leukocyte activation and serum TNF-α levels. IVVM is carried out at 3 hours post-fasciotomy.

TNF-α [5] = assay: Serum TNF-α time course in porcine model of CS; conditions: pig, 6 h elevated ICP, 10 mg/kg, 3 h reperfusion
Experimental: as §4

compartment syndrome [6] = assay: CatWalk gait assessment in rats after CS without fasciotomy; conditions: rat, 180 min CS, no fasciotomy
Experimental: Animal preparation and synthesis of CORM-3 were similar to Example 3.
Complete inducement of CS occurred at about 180 minutes post induction. The animals were injected at 180 minutes and every 24 hours thereafter.
Quantitative assessment of footfalls and gait in the rats was assessed using CatWalk™, which a system for quantitative assessment of footfalls and gait in rats and mice.

[7] = rat CS model, 10 mg/kg IP at fasciotomy
[8] = rat CS model, CORM-3 versus control
[9] = rat, 2 h elevated ICP, fasciotomy, 10 mg/kg IP, 45 min reperfusion, mean±SEM

NCC(=O)O.[C-]#[O+].[C-]#[O+].[C-]#[O+].[Cl][Ru] [CORM-3, tricarbonylchloro-glycinate-ruthenium(II)]
Effect on leukocyte adhesion within post-capillary venules ([1]; rat CS model, 10 mg/kg IP): prevent leukocyte adhesion | Effect on leukocyte rolling ([1]; rat CS model, 10 mg/kg IP): no effect | Effect on CS-associated microvascular perfusion changes [1, 7]: reversed | Effect on CS-associated tissue injury [1, 7]: reversed | Decrease in leukocyte adherence (leukocyte activation) [1, 8]: 8 fold | Decrease in tissue injury [1, 8]: 4 fold | Leukocyte adherence in post-capillary venules [1, 9]: 0.6±0.3 leukocytes/30 s/1000 μm^2 | Leukocyte rolling in post-capillary venules [1, 9]: 3.0±0.8 leukocytes/30 s/1000 μm^2 | Muscle injury, EB/BB ratio [1, 9]: 0.07±0.01 | Continuously-perfused capillaries (CPC) ([1]; rat, % of total capillaries, 2 h elevated ICP, fasciotomy, 10 mg/kg IP, 45 min reperfusion, mean±SEM): 57±5% | Effect on COHb levels ([2]; rat CS model, 10 mg/kg IP): no effect | Effect on CS-associated rise in systemic leukocyte counts [2, 7]: decrease the severity of this response | COHb (carboxyhemoglobin) [2, 9]: 1.6 ± 0.1% | Hemoglobin [2, 9]: 129.5 ± 2.7 g/L | LKC (systemic leukocyte counts) [2, 9]: 2.3 ± 0.2^† Units × 10^9/L | Serum TNF-α in post-fasciotomy/reperfusion period (TNF-α [3]): effectively prevented; also recorded: reversed | Continuously-perfused capillaries (CPC) (compartment syndrome [4]; IVVM 3 h post-fasciotomy): increase | Intermittently-perfused capillaries (IPC) (compartment syndrome [4]; IVVM 3 h post-fasciotomy): decrease | Non-perfused capillaries (NPC) (compartment syndrome [4]; IVVM 3 h post-fasciotomy): decrease | Number of activated PMNs post-fasciotomy (compartment syndrome [4]; fasciotomy, versus iCORM-3): significant decrease | Serum TNF-α release associated with post-fasciotomy/reperfusion (TNF-α [5]): prevented any TNF-α release | Static and dynamic gait functional parameters (CatWalk) (compartment syndrome [6]; 10 mg/kg IP at 180 min and every 24 h, relative to iCORM-3): significantly improved | Weight bearing parameters (CatWalk) (compartment syndrome [6]; multi dose 10 mg/kg IP): improvement

Source: patent publication US9421222B2, “Treatment of compartment syndrome” (LONDON HEALTH SCIENCES CENTRE RESEARCH INC., priority 2013, dated 2016)
